Test results from patent publication US11426394B2, “Method to prevent and treat macular degeneration by calcium channel blockers, angiotensin converting enzyme inhibitors, and angiotensin receptor blockers” (priority 2018, dated 2022).

What was measured:
[1] = in vivo; cited from earlier work
Macular Degeneration = settings: chronic use; cited from earlier work
wet macular degeneration = test: Patient with wet macular degeneration: one eye treated, other eye left untreated; assay type: in vivo, human
Text: (§1) A patient is diagnosed with wet macular degeneration. A composition comprising the calcium channel blocker nifedipine is directly applied to the vitreous surface of one eye while the other eye is left untreated. […] A patient is diagnosed with wet macular degeneration. A composition comprising the ACE inhibitor enalapril is directly applied to the vitreous surface of one eye while the other eye is left untreated. […] A patient is diagnosed with wet macular degeneration. A composition comprising the angiotensin receptor blocker losartan is directly applied to the vitreous surface of one eye while the other eye is left untreated. […] A patient is diagnosed with wet macular degeneration. A composition comprising the calcium channel blocker nifedipine is directly injected into the intraocular space of one eye while the other eye is left untreated. […] A patient is diagnosed with wet macular degeneration. A composition comprising the ACE inhibitor enalapril is directly injected into the intraocular space of one eye while the other eye is left untreated. […] A patient is diagnosed with wet macular degeneration. A composition comprising the angiotensin receptor blocker losartan is directly injected into the intraocular space of one eye while the other eye is left untreated.

dry macular degeneration = test: Patient with dry macular degeneration: one eye treated, other eye left untreated; assay type: in vivo, human
Text: as §1, with “dry” for “wet”

[2] = composition directly applied to the vitreous surface of one eye
[3] = composition directly injected into the intraocular space of one eye

Compound: tocopherol
- all-cause mortality [1]: increase in all-cause mortality

Compound: CC(=O)Oc1ccccc1C(=O)O [aspirin]
- association with Macular Degeneration (Macular Degeneration): increase in Macular Degeneration

Compound: CC1=C(/C=C/C(C)=C/C=C/C(C)=C/C=C/C=C(C)/C=C/C=C(C)/C=C/C2=C(C)CCCC2(C)C)C(C)(C)CCC1 [Beta carotene, beta carotene]
- lung cancer [1]: increase lung cancer

Compound: CCOC(=O)[C@H](CCc1ccccc1)N[C@@H](C)C(=O)N1CCC[C@H]1C(=O)O [enalapril]
- symptoms of wet macular degeneration, treated eye versus untreated eye (wet macular degeneration; [2]): reduced symptoms of wet macular degeneration
- symptoms of wet macular degeneration, treated eye versus untreated eye (wet macular degeneration; [3]): reduced symptoms of wet macular degeneration
- symptoms of dry macular degeneration, treated eye versus untreated eye (dry macular degeneration; [2]): reduced symptoms of dry macular degeneration
- symptoms of dry macular degeneration, treated eye versus untreated eye (dry macular degeneration; [3]): reduced symptoms of dry macular degeneration

Compound: CCCCc1nc(Cl)c(CO)n1Cc1ccc(-c2ccccc2-c2nn[nH]n2)cc1 [losartan]
- symptoms of wet macular degeneration, treated eye versus untreated eye (wet macular degeneration; [2]): reduced symptoms of wet macular degeneration
- symptoms of wet macular degeneration, treated eye versus untreated eye (wet macular degeneration; [3]): reduced symptoms of wet macular degeneration
- symptoms of dry macular degeneration, treated eye versus untreated eye (dry macular degeneration; [2]): reduced symptoms of dry macular degeneration
- symptoms of dry macular degeneration, treated eye versus untreated eye (dry macular degeneration; [3]): reduced symptoms of dry macular degeneration
